Patent US20040086901A1, “Database for analyzing gene function and method of analyzing gene function by dspa” (priority 2000, published 2004)

How the values were obtained:
Format in all cases: cell-based, mouse
[1] = system: NIH3T3 cells overexpressing CBP8; experiment: MTT cell viability, CBP8 overexpressing cells vs parental line; conditions: CBP8 high-expressing cells / parental cell line, 3 to 4 days
Description: (§1) With regard to the function-known genes, the genes shown in the left column of Table 2 were used. With regard to the drugs, those shown in Table 1 were dissolved in DMSO to an extent of 100-fold of the maximum concentration for the search of the drugs and used. With regard to the cells, incubated NIH3T3 or ras-NIH3T3 cells were used.
(§2) Full-length cDNA of each function-known genes was incorporated into an expression vector (pRc-CMV, etc.) and transfected into NIH3T3 cells by a common method. Transformed cells were isolated using the resistance to G-418 as an index and the expression of the transfected gene in each cell was investigated by Western blotting method to select a highly expressing line.
(§3) Cell viabilities were measured according to the following procedures.
(§4) 1) From the 2nd to the 11th rows of a 96-well plate were filled with DMEM (50 μl). The 12th row was filled with 100 μl of DMEM.
(§5) 2) The 1st row was filled with 98 μl of DMEM.
(§6) 3) Drugs (2 μl each) were added into the 1st row.
(§7) 4) Continuous double-dilution was conducted from the 1st to the 9th rows. Fifty μl were taken out from the 9th row and discarded. The plate was preserved in a CO2 incubator.
(§8) 5) Cells (each high-expressing cells and the parental cell line) were detached from the medium using a trypsin solution, suspended in 10% CS-DMEM and transferred to a test tube and cell numbers (cell/ml) were counted.
(§9) 6) The cells were diluted to a concentration of 1×10^5 cells/ml, and 50 μl of the cell suspension were added to the 1st to the 11th rows of the plate followed by gently stirring.
(§10) 7) The plate was transferred to the CO2 incubator and incubated for 3 to 4 days.
(§11) 8) MTT (5 mg/ml in PBS) (10 μl) was added to the 1st to the 12th rows of the plate and incubated in the CO2 incubator at 37° C. for 4 hours.
(§12) 9) A reaction stop solution (0.04N HCl in isopropanol) (150 μl) was added followed by mixing well and being allowed to stand at room temperature for about 2 hours.
(§13) 10) Coloration of formazan which was a metabolite of the MTT dye was measured using a microplate reader. The measurement wavelength was 574 nm and the reference wavelength was 655 nm. The 10th and the 11th rows of the plate were 100% controls and the 12th row was a 0% control.
(§14) As an index for the sensitivity of highly gene-expressing cells and the parental cell line to various drugs, each of the IC40 values thereof was specified and ratios of the IC40 values were calculated. FIG. 2 and FIG. 3 are the examples where ratios of IC40 values were calculated from a curve showing the dependency on the concentration of the chemical versus the viability. After that, logarithmic values of ratios of IC40 values were calculated from each gene.

[2] = system: NIH3T3 cells overexpressing N-ras; experiment: MTT cell viability, N-ras overexpressing cells vs parental line; conditions: N-ras high-expressing cells / parental cell line, 3 to 4 days
Description: as §1, §2, §3, §4, §5, §6, §7, §8, §9, §10, §11, §12, §13, §14

[3] = system: NIH3T3 cells overexpressing STAT1; experiment: MTT cell viability, STAT1 overexpressing cells vs parental line; conditions: STAT1 high-expressing cells / parental cell line, 3 to 4 days
Description: as §1, §2, §3, §4, §5, §6, §7, §8, §9, §10, §11, §12, §13
(§15) As an index for the sensitivity of highly gene-expressing cells and the parental cell line to various drugs, each of the IC40 values thereof was specified and ratios of the IC40 values were calculated. […] After that, logarithmic values of ratios of IC40 values were calculated from each gene.

[4] = system: NIH3T3 cells overexpressing HNF3b; experiment: MTT cell viability, HNF3b overexpressing cells vs parental line; conditions: HNF3b high-expressing cells / parental cell line, 3 to 4 days
Description: as §1, §2, §3, §4, §5, §6, §7, §8, §9, §10, §11, §12, §13, §15

[5] = system: NIH3T3 cells overexpressing PDGF-R-Del; experiment: MTT cell viability, PDGF-R-Del overexpressing cells vs parental line; conditions: PDGF-R-Del high-expressing cells / parental cell line, 3 to 4 days
Description: as §1, §2, §3, §4, §5, §6, §7, §8, §9, §10, §11, §12, §13, §14

[6] = system: NIH3T3 cells overexpressing PKCalpha-KN; experiment: MTT cell viability, PKCalpha-KN overexpressing cells vs parental line; conditions: 3 to 4 days
Description: as §1, §2, §3, §4, §5, §6, §7, §8, §9, §10, §11, §12, §13, §15

[7] = system: NIH3T3 cells overexpressing DAN; experiment: MTT cell viability, DAN overexpressing cells vs parental line; conditions: DAN high-expressing cells / parental cell line, 3 to 4 days
Description: as §1, §2, §3, §4, §5, §6, §7, §8, §9, §10, §11, §12, §13, §14

[8] = system: NIH3T3 cells overexpressing p16/INK4A; experiment: MTT cell viability, p16/INK4A overexpressing cells vs parental line; conditions: p16/INK4A high-expressing cells / parental cell line, 3 to 4 days
Description: as §1, §2, §3, §4, §5, §6, §7, §8, §9, §10, §11, §12, §13, §14

[9] = system: NIH3T3 cells overexpressing p38-DN; experiment: MTT cell viability, p38-DN overexpressing cells vs parental line; conditions: p38-DN high-expressing cells / parental cell line, 3 to 4 days
Description: as §1, §2, §3, §4, §5, §6, §7, §8, §9, §10, §11, §12, §13, §15

[10] = system: NIH3T3 cells overexpressing calpastatin; experiment: MTT cell viability, calpastatin overexpressing cells vs parental line; conditions: calpastatin high-expressing cells / parental cell line, 3 to 4 days
Description: as §1, §2, §3, §4, §5, §6, §7, §8, §9, §10, §11, §12, §13, §14

[11] = system: NIH3T3 cells overexpressing caspase-3; experiment: MTT cell viability, caspase-3 overexpressing cells vs parental line; conditions: caspase-3 high-expressing cells / parental cell line, 3 to 4 days
Description: as §1, §2, §3, §4, §5, §6, §7, §8, §9, §10, §11, §12, §13, §15

[12] = system: NIH3T3 cells overexpressing Ki-ras; experiment: MTT cell viability, Ki-ras overexpressing cells vs parental line; conditions: Ki-ras high-expressing cells / parental cell line, 3 to 4 days
Description: as §1, §2, §3, §4, §5, §6, §7, §8, §9, §10, §11, §12, §13, §14

[13] = system: NIH3T3 cells overexpressing JNK-DN; experiment: MTT cell viability, JNK-DN overexpressing cells vs parental line; conditions: JNK-DN high-expressing cells / parental cell line, 3 to 4 days
Description: as §1, §2, §3, §4, §5, §6, §7, §8, §9, §10, §11, §12, §13, §14

[14] = system: NIH3T3 cells overexpressing m-calpain; experiment: MTT cell viability, m-calpain overexpressing cells vs parental line; conditions: m-calpain high-expressing cells / parental cell line, 3 to 4 days
Description: as §1, §2, §3, §4, §5, §6, §7, §8, §9, §10, §11, §12, §13, §15

[15] = system: NIH3T3 cells overexpressing cystatin E; experiment: MTT cell viability, cystatin E overexpressing cells vs parental line; conditions: cystatin E high-expressing cells / parental cell line, 3 to 4 days
Description: as §1, §2, §3, §4, §5, §6, §7, §8, §9, §10, §11, §12, §13, §14

[16] = system: NIH3T3 cells overexpressing CP-antisense; experiment: MTT cell viability, CP-antisense cells vs parental line; conditions: 3 to 4 days
Description: as §1, §2, §3, §4, §5, §6, §7, §8, §9, §10, §11, §12, §13, §14

[17] = system: NIH3T3 cells overexpressing Ha-ras; experiment: MTT cell viability, drug sensitivity of Ha-ras overexpressing cells vs parental line; conditions: Ha-ras high-expressing cells / parental cell line, 3 to 4 days
Description: as §1, §2, §3, §4, §5, §6, §7, §8, §9, §10, §11, §12, §13, §15

[18] = system: NIH3T3 cells overexpressing HSP4O; experiment: MTT cell viability, HSP4O overexpressing cells vs parental line; conditions: HSP4O high-expressing cells / parental cell line, 3 to 4 days
Description: as §1, §2, §3, §4, §5, §6, §7, §8, §9, §10, §11, §12, §13, §14

[19] = system: NIH3T3 cells overexpressing HNF1; experiment: MTT cell viability, HNF1 overexpressing cells vs parental line; conditions: HNF1 high-expressing cells / parental cell line, 3 to 4 days
Description: as §1, §2, §3, §4, §5, §6, §7, §8, §9, §10, §11, §12, §13, §15

[20] = system: NIH3T3 cells, TPA (PKC downreg); experiment: MTT cell viability, TPA (PKC downreg) cells vs parental line; conditions: 3 to 4 days
Description: as §1, §2, §3, §4, §5, §6, §7, §8, §9, §10, §11, §12, §13, §14

[21] = PKCalpha-KN (first of two lines) high-expressing cells / parental cell line
[22] = PKCalpha-KN (second of two lines) high-expressing cells / parental cell line

Row | Molecule | logarithmic value of ratio of IC40 values [1] | logarithmic value of ratio of IC40 values [2] | logarithmic value of ratio of IC40 values [3] | logarithmic value of ratio of IC40 values [4] | logarithmic value of ratio of IC40 values [5] | logarithmic value of ratio of IC40 values [6, 21] | logarithmic value of ratio of IC40 values [6, 22] | logarithmic value of ratio of IC40 values [7] | logarithmic value of ratio of IC40 values [8] | logarithmic value of ratio of IC40 values [9] | logarithmic value of ratio of IC40 values [10] | logarithmic value of ratio of IC40 values [11] | logarithmic value of ratio of IC40 values [12] | logarithmic value of ratio of IC40 values [13] | logarithmic value of ratio of IC40 values [14] | logarithmic value of ratio of IC40 values [15] | logarithmic value of ratio of IC40 values [16] | logarithmic value of ratio of IC40 values [17] | logarithmic value of ratio of IC40 values [18] | logarithmic value of ratio of IC40 values [19] | further results
1 | ICE inhibitor-III [ICEin-3] | 0.18 | 0.38 | 0.09 | −0.09 | 0.00 | 0.12 | 0.33 | 0.00 | 0.15 | −0.11 | −0.088 | 0.13 | 0.30 | 0.00 | −0.06 | 0.07 | −0.19 | 0.32 | 0.11 | 0.20 | logarithmic value of ratio of IC40 values [20]: −0.09
2 | COC(=O)[C@@]1(O)C[C@H]2O[C@]1(C)n1c3ccccc3c3c4c(c5c6ccccc6n2c5c31)C(=O)NC4 [K252a] | 0.28 | −0.16 | 0.15 | −0.21 | 0.10 | 0.16 | 0.02 | −0.46 | −0.22 | −0.15 | 0.1 | 0.15 | 0.15 | −0.28 | 0.13 | −0.19 | 0.00 | 0.65 | 0.07 | −0.207 | logarithmic value of ratio of IC40 values [20]: −0.13
3 | C=C[C@@]1(C)CC(=O)[C@]2(O)[C@@]3(C)[C@@H](O)CCC(C)(C)[C@@H]3[C@H](O)[C@H](OC(C)=O)[C@@]2(C)O1 [Forskolin, forskolin] | 0.40 | 0.54 | 0.51 | 0.00 | 0.51 | −0.47 | 0.00 | 0.88 | 0.70 | −0.46 | −0.09 | 1.12 | 0.36 | −0.22 | 0.25 | 0.29 | −0.05 | 0.26 | −0.39 | 1.15 | logarithmic value of ratio of IC40 values [20]: −0.17
4 | C=CC1=C(C)c2cc3[n-]c(cc4nc(cc5[n-]c(cc1n2)c(C)c5CCC(=O)O)C(CCC(=O)O)=C4C)c(C)c3C=C.[Cl-].[Cl-].[Sn+4] [SnPP] | 0.56 | 0.14 | 0.08 | 0.24 | 0.08 | −0.14 | 0.00 | −0.49 | −0.05 | 0.10 | 0.486 | −0.40 | 0.18 | −0.11 | −0.07 | 0.11 | 0.10 | 0.28 | 0.28 | 0.138 | logarithmic value of ratio of IC40 values [20]: −0.20
5 | CC(=O)OCOC(=O)CN(CC(=O)OCOC(C)=O)c1ccccc1OCCOc1ccccc1N(CC(=O)OCOC(C)=O)CC(=O)OCOC(C)=O [BAPTA-AM] | 0.00 | 0.00 | 0.10 | −0.07 | 0.31 | 0.43 | −0.42 | 0.70 | 0.20 | 0.00 | 0 | 0.60 | −0.15 | 0.06 | 0.00 | −0.02 | 0.06 | −0.20 | 0.05 | 0.20 | logarithmic value of ratio of IC40 values [20]: −0.03
